How the values were obtained:
[1] = test system: subjects with Age-Associated Memory Impairment; test: CDR computerized cognitive test battery, 6-week study in Age-Associated Memory Impairment; assay type: in vivo, human; conditions: for Quality of Episodic Secondary Memory, LS mean difference vs placebo: overall; for Self-Rated Contentment, ANCOVA: p<0.001
Method: A single-center, 6-week, double-blind, randomizes, parallel-group, placebo-controlled, dose-ranging pilot study was performed to evaluate the efficacy, tolerability, and safety of >96% ethyl-EPA in subjects with subjective and objective memory impairment according to generally accepted criteria for Age-Associated Memory Impairment (“AAMI”). The primary objective of the study was to determine the effect of >96% ethyl-EPA 1 g, 2 g, and 4 g daily, compared to placebo, on cognitive performance in subjects with AAMI.
The population for this study was men and women between ages 50 and 70 with self-reported complaints of memory loss, subjective and objective cognitive impairment with a score of at least one standard deviation below that of the mean for age-matched elderly population as determined by the total score of between 13 and 20 from the Paired Associated Learning (“PAL”) subset of the Wechsler Memory Scale, evidence of adequate intellectual function as determined by a scaled score of at least 9 (raw score of at least 32) on the Vocabulary subtest of the Wechsler Adult Intelligence Scale and absence of dementia as determined by a score of 24 or higher on the Mini-Mental State Examination (“MMSE”).
Ninety-four subjects were randomized into one of six groups: 1 g E-EPA daily (n=23), 2 g E-EPA daily (n=24), 4 g E-EPA daily (n=24), 1 g placebo daily (n=7), 2 g placebo daily (n=8), and 4 g placebo daily (n=8). E-EPA was provided as 500 mg soft gel capsules containing >96% E-EPA and 0.2% dl-α-tocopherol as an antioxidant. Placebo capsules contained 467 mg of liquid paraffin and 0.2% dl-a-tocopherol. Ninety-one subjects completed the study. Two subjects in the 2 g E-EPA group and one subject in the 2 g placebo group discontinued the study.
The study consisted of a screening visit, a training visit, and four study visits. At the screening visit, subjects' eligibility was determined through cognitive tests (verbal paired associated learning [PAL] subscale, vocabulary subtest, Memory Assessment Clinics Questionnaire [MAC-Q], mini mental state evaluation [MMSE] and MINI [mini international neuropsychiatric interview; sections 1 and 2 of Diagnostic and Statistical Manual of Mental Disorders, 4th Edition (DSM-IV) plus dysthymia]), haematology, clinical chemistry and 12-lead electrocardiogram (ECG). At the training visit, subjects were shown how to use the CDR computerized system. Subjects took study drug for 6 weeks and on Days 0, 14, 28 and 42, subjects underwent the CDR cognitive test battery.
A selection of tasks from the CDR computerized cognitive assessment system were administered at Visit 2 (training visit), Visit 3 (baseline), Visit 4 (Day 14), Visit 5 (Day 28) and Visit 6 (Day 42). Parallel forms of the tests were presented at each testing session. All tasks were computer-controlled, the information presented on high resolution monitors, and the responses recorded via a response model containing two buttons: one marked ‘no’ and the other ‘yes’. Five CDR composite scores were used as the primary/secondary outcome variables. The task titles were: • Word Presentation • Immediate Word Recall • Picture Presentation • Simple Reaction Time • Digit Vigilance • Choice Reaction Time • Spatial Working Memory • Numeric Working Memory • Delayed Word Recall • Word Recognition • Picture Recognition • Bond-Lader Visual Analogue Scales of Mood and Alertness • Screen, Using the Computer Mouse
Summary statistics were provided for the ITT and Study Per Protocol Populations separately for all composite scores, major and supportive variables. Summary statistics were performed for both the unadjusted and difference from baseline data (i.e. the difference from the time matched predose assessments on Day 0). Summary statistics were calculated by treatment, day and time-point. The summary statistics comprised n, mean, median, SD, standard error of mean (“SEM”), minimum and maximum values. […]

[2] = previous data; standard deviation of 15%; cited from earlier work

SMILES: CC/C=C\C/C=C\C/C=C\C/C=C\C/C=C\CCCC(=O)OCC [Ethyl-EPA, all-cis eicosa-5,8,11,14,17-pentaenoic acid ethyl ester]
- Continuity of Attention and Digit Vigilance Targets Detected, effect of treatment ([1]; ITT): no statistically significant effect of treatment
- Immediate and Delayed Word Recall Accuracies, Word and Picture Recognition Sensitivity Indices, effect of treatment ([1]; ITT): no statistically significant effects of treatment
- Quality of Episodic Secondary Memory, effect of treatment ([1]; ITT): no statistically significant effect of treatment
- Self-Rated Alertness, effect of treatment ([1]; ITT): no statistically significant effect of treatment
- Self-Rated Calmness, effect of treatment ([1]; ITT): no statistically significant effect of treatment
- Self-Rated Contentment, LS mean difference to placebo ([1]; ITT): no statistically significant effects
- Simple Reaction Time and Digit Vigilance Speed, effect of treatment ([1]; ITT): no statistically significant effects of treatment
- Speed of Memory and subtasks Spatial and Numeric Working Memory Speeds, Word and Picture Recognition Speeds, effect of treatment ([1]; ITT): no statistically significant effects of treatment
- Power of Attention, effect of treatment ([1]; ITT, 1, 2, 4 g daily vs placebo, ANCOVA): no statistically significant effect of treatment
- Immediate Word Recall Accuracy, LS mean difference vs placebo ([1]; ITT, 1 g, Day 14, p=0.028): statistically significant decreases
- Picture Recognition Speed, difference vs placebo ([1]; ITT, 1 g, Day 14 at AM 2, p=0.084): trends for benefits
- Immediate Word Recall Accuracy, LS mean difference vs placebo ([1]; ITT, 1 g, Day 14 at PM 2, p=0.020): statistically significant decreases
- Word Recognition Sensitivity Index, LS mean difference vs placebo ([1]; ITT, 1 g, Day 28, p=0.024): statistically significant decreases
- Picture Recognition Speed, difference vs placebo ([1]; ITT, 1 g, Day 28 at AM 1, p=0.085): trends for benefits
- Picture Recognition Sensitivity Index, LS mean difference vs placebo ([1]; ITT, 1 g, Day 28 at AM 2, p=0.017): statistically significant decrease
- Picture Recognition Sensitivity Index, LS mean difference vs placebo ([1]; ITT, 1 g, Day 28 at PM 2, p=0.040): statistically significant decrease
- Immediate Word Recall Accuracy, LS mean difference vs placebo ([1]; ITT, 1 g, at AM 1, p=0.040): statistically significant decreases
- Quality of Episodic Secondary Memory, LS mean difference vs placebo ([1]; ITT, 1 g, p=0.040): statistically significant decreases
- Immediate Word Recall Accuracy, LS mean difference vs placebo ([1]; ITT, 2 g, Day 28, p=0.017): statistically significant decreases
- Self-Rated Alertness, LS mean difference vs placebo ([1]; ITT, 2 g, Day 28, p=0.047): statistically significant decrease in ratings
- Immediate Word Recall Accuracy, LS mean difference vs placebo ([1]; ITT, 2 g, Day 28 at AM 1, p=0.006): statistically significant decreases
- Self-Rated Alertness, LS mean difference vs placebo ([1]; ITT, 2 g, Day 28 at AM 2, p=0.041): statistically significant decrease in ratings
- Immediate Word Recall Accuracy, LS mean difference vs placebo ([1]; ITT, 2 g, at AM 1, p=0.028): statistically significant decreases
- Quality of Episodic Secondary Memory, LS mean difference vs placebo ([1]; ITT, 2 g, p=0.035): statistically significant decreases
- Spatial Working Memory Speed, LS mean difference vs placebo ([1]; ITT, 4 g, Day 14 at PM 1, p=0.048): statistically significant benefit
- Word Recognition Sensitivity Index, LS mean difference vs placebo ([1]; ITT, 4 g, Day 28 at PM 2, p=0.030): statistically significant decrease
- Word Recognition Sensitivity Index, LS mean difference vs placebo ([1]; ITT, 4 g, Day 42, p=0.038): statistically significant decreases
- Spatial Working Memory Speed, LS mean difference vs placebo ([1]; ITT, 4 g, Day 42 at AM 1, p=0.061): trend for a benefit
- Word Recognition Sensitivity Index, LS mean difference vs placebo ([1]; ITT, 4 g, at PM 2, p=0.045): statistically significant decrease
- Power of Attention, LS mean difference active treatment vs placebo ([1]; ITT, any time-point): no LS mean difference
- Self-Rated Contentment, ANCOVA ([1]; ITT): statistically significant treatment by day interaction
- Choice Reaction Time, ANCOVA ([1]; ITT, p=0.011): statistically significant treatment by day interaction
- Spatial Working Memory Sensitivity Index, ANCOVA ([1]; ITT, p=0.015): statistically significant treatment by day interaction
- Quality of Working Memory, ANCOVA ([1]; ITT, p=0.019): statistically significant treatment by day interaction
- Numeric Working Memory Sensitivity Index, ANCOVA ([1]; ITT, p=0.089): statistical trend for a treatment by day interaction
- Continuity of Attention, effect of treatment ([1]; Study Per Protocol): no statistically significant effect of treatment
- Digit Vigilance Targets Detected, ANCOVA ([1]; Study Per Protocol, p=0.040): statistically significant treatment by time-point interaction
- Immediate and Delayed Word Recall Accuracies, Word and Picture Recognition Sensitivity Indices, effect of treatment ([1]; Study Per-Protocol): no statistically significant effects of treatment
- Power of Attention, effect of treatment ([1]; Study Per-Protocol): no statistically significant effect of treatment
- Quality of Episodic Secondary Memory, effect of treatment ([1]; Study Per-Protocol): no statistically significant effects of treatment
- Self-Rated Alertness, effect of treatment ([1]; Study Per-Protocol): no statistically significant effect of treatment
- Self-Rated Calmness, effect of treatment ([1]; Study Per-Protocol): no statistically significant effect of treatment
- Self-Rated Contentment, LS mean difference to placebo ([1]; Study Per-Protocol): no statistically significant effects
- Simple Reaction Time and Digit Vigilance Speed, effect of treatment ([1]; Study Per-Protocol): no statistically significant effects of treatment
- Speed of Memory and subtasks Spatial and Numeric Working Memory Speed, Word and Picture Recognition Speed, effect of treatment ([1]; Study Per-Protocol): no statistical significant effects of treatment
- Immediate Word Recall Accuracy, LS mean difference to placebo ([1]; Study Per-Protocol, 1 g, Day 14, p=0.024): statistically significant decreases
- Immediate Word Recall Accuracy, LS mean difference to placebo ([1]; Study Per-Protocol, 1 g, Day 14 at PM 2, p=0.019): statistically significant decreases
- Word Recognition Sensitivity Index, LS mean difference to placebo ([1]; Study Per-Protocol, 1 g, Day 28, p=0.027): statistically significant decreases
- Picture Recognition Sensitivity Index, LS mean difference vs placebo ([1]; Study Per-Protocol, 1 g, Day 28 at AM 2, p=0.020): statistically significant decreases
- Picture Recognition Sensitivity Index, LS mean difference vs placebo ([1]; Study Per-Protocol, 1 g, Day 28 at PM 2, p=0.026): statistically significant decreases
- Immediate Word Recall Accuracy, LS mean difference to placebo ([1]; Study Per-Protocol, 1 g, at AM 1, p=0.038): statistically significant decreases
- Immediate Word Recall Accuracy, LS mean difference to placebo ([1]; Study Per-Protocol, 1 g, at AM 2, p=0.048): statistically significant decreases
- Quality of Episodic Secondary Memory, LS mean difference vs placebo ([1]; Study Per-Protocol, 1 g, p=0.043): statistically significant decreases
- Immediate Word Recall Accuracy, LS mean difference to placebo ([1]; Study Per-Protocol, 2 g, Day 28, p=0.017): statistically significant decreases
- Self-Rated Alertness, LS mean difference vs placebo ([1]; Study Per-Protocol, 2 g, Day 28, p=0.035): statistically significant decrease in ratings
- Immediate Word Recall Accuracy, LS mean difference to placebo ([1]; Study Per-Protocol, 2 g, Day 28 at AM 1, p=0.006): statistically significant decreases
- Self-Rated Alertness, LS mean difference vs placebo ([1]; Study Per-Protocol, 2 g, Day 28 at AM 2, p=0.033): statistically significant decrease in ratings
- Immediate Word Recall Accuracy, LS mean difference to placebo ([1]; Study Per-Protocol, 2 g, at AM 1, p=0.029): statistically significant decreases
- Quality of Episodic Secondary Memory, LS mean difference vs placebo ([1]; Study Per-Protocol, 2 g, p=0.036): statistically significant decreases
- Word Recognition Sensitivity Index, LS mean difference to placebo ([1]; Study Per-Protocol, 4 g, Day 42, p=0.038): statistically significant decreases
- Self-Rated Calmness, LS mean difference vs placebo ([1]; Study Per-Protocol, 4 g, Day 42 at PM 1, p=0.071): statistical trend for an increase in ratings
- Power of Attention, difference active treatment vs placebo ([1]; Study Per-Protocol, any time-point): no difference between active treatment and placebo
- Self-Rated Contentment, ANCOVA ([1]; Study Per-Protocol): statistically significant treatment by day interaction
- Choice Reaction Time, ANCOVA ([1]; Study Per-Protocol, p=0.013): statistically significant treatment by day interaction
- Spatial Working Memory Sensitivity Index, ANCOVA ([1]; Study Per-Protocol, p=0.014): statistically significant treatment by day interaction
- Quality of Working Memory, ANCOVA ([1]; Study Per-Protocol, p=0.021): statistically significant treatment by day interaction
- Continuity of Attention, post-hoc vs corresponding placebo ([1]; post-hoc): no general pattern of effects
- Quality of Working Memory and Numeric Working Memory Sensitivity Index, post-hoc vs corresponding placebo ([1]; post-hoc): only isolated improvements and declines in performance
- Self-Rated Calmness, post-hoc vs corresponding placebo ([1]; post-hoc): no differences between active treatment and placebo
- Self-rated Alertness and Self-rated Contentment, post-hoc vs corresponding placebo ([1]; post-hoc, 1 g, Days 14 and 28): decreases in ratings
- Choice Reaction Time, post-hoc vs corresponding placebo ([1]; post-hoc, 4 g, Day 42): superior to placebo at every time point
- Power of Attention, post-hoc vs corresponding placebo ([1]; post-hoc, 4 g, Day 42): overall benefit versus the corresponding placebo
- Spatial Working Memory Sensitivity Index, post-hoc vs corresponding placebo ([1]; post-hoc, 4 g, Day 42, Study PP Population): overall benefit
- Simple Reaction Time, post-hoc vs corresponding placebo ([1]; post-hoc, 4 g, PM 2 collapsed across days, several time-points Days 14 and 42): improvements in performance
- Choice Reaction Time, post-hoc vs corresponding placebo ([1]; post-hoc, 4 g, all study days): overall benefit versus corresponding placebo
- Quality of Episodic Secondary Memory and contributing subtasks, post-hoc vs corresponding placebo ([1]; post-hoc, explained by pre-existing group differences): a number of decreases
- Speed of Memory subtask measures, post-hoc vs corresponding placebo ([1]; post-hoc, mostly 1 g): some signs of improvement in performance
- Difference in percent change from baseline in fasting LDL-C between study drug and placebo [2]: 2.2%

— US11439618B2, “Compositions and methods for lowering triglycerides” (Amarin Pharmaceuticals Ireland Limited, priority 2009, dated 2022)
